test system: C57/BL6 mice; assay: Contextual fear conditioning in the presence of thiazoline-related fear odor (inhibition of fear memory formation), freezing behavior; format: in vivo; conditions: filter paper impregnated with 100 μl or 10 μl of 2MT during fear conditioning; freezing measured for 10 min on day 3 with Eugenol; compared to group that learned with no odor; FIG. 1
Procedure: • Day 0: About 2-month-old C57/BL6 mice were placed in an electric shock chamber, and 2-second electric shock (0.6 mA) was given 6 times at 2-minute intervals for 12 min for contextual fear conditioning. Conditioning was performed under 4 conditions of no odor condition (control; n=6) (group 1) and an electric shock chamber with filter paper impregnated with 100 μl of 2-methyl-2-thiazoline (2MT) condition (2MT; n=6) (group 2), or no odor condition (control; n=6) (group 3) and an electric shock chamber with filter paper impregnated with 10 μl of 2-methyl-2-thiazoline (2MT) condition (2MT; n=6) (group 4). • Day 1: Mice were placed in the electric shock chamber (no odor) used for learning on the previous day, and freezing behavior was measured for 10 min using dedicated software (Freeze frame 2; ActiMetrics). • Day 3: The mice of group 1 and group 2 were placed in an electric shock chamber with filter paper impregnated with 100 μl of Eugenol, and freezing behavior was measured for 10 min. The mice in group 3 and group 4 were placed in an electric shock chamber with filter paper impregnated with 10 μl of Eugenol, and freezing behavior was measured for 10 min.
A student's t-test was also performed between the group with no odor and the group with 2MT (**p<0.01, ***p<0.001).

SMILES	freezing behavior in the context with odor (eugenol odor context; day 3)
CC1=NCCS1 [2-methyl-2-thiazoline]	marked decrease

same assay, conditions: filter paper impregnated with 100 μl or 10 μl of 2MT in electric shock chamber during fear conditioning; freezing measured for 10 min on day 1; compared to no odor group; FIG. 1

SMILES	freezing behavior in the no odor context (day 1)
CC1=NCCS1 [2-methyl-2-thiazoline]	remarkably decreased

test system: C57/BL6 mice; assay: Contextual fear conditioning 30 min after intraperitoneal administration (inhibition of fear memory formation), freezing behavior; format: in vivo; conditions: intraperitoneal 200 μl of 1 v/v % solution in saline, 30 min before conditioning; freezing for 10 min on day 1, no odor; compared with saline-administered group (=100%); n=6; FIG. 2-12
Procedure: • Day 0: To about 2 month-old C57/BL6 mice was intraperitoneally administered 200 μl of saline, or 1 v/v % 2-methyl-2-thiazoline solution (dissolved in saline), or 1 v/v % 5-methylthiazole solution (dissolved in saline), or 1 v/v % 4-ethyl-2-methyl-2-thiazoline solution (dissolved in saline), or 1 v/v % 2,4,5-trimethyl-3-thiazoline solution (dissolved in saline), or 1 v/v % thiomorpholine solution (dissolved in saline), or 1 v/v % allyl isothiocyanate (AITC) solution (dissolved in saline), or 1 v/v % 2,3-diethylpyrazine solution (dissolved in saline), or 1 v/v % 2,6-lutidine solution (dissolved in saline) (each condition n=6). Thirty minutes after the administration, the mice were placed in an electric shock chamber, and 2-second electric shock (0.6 mA) was given 6 times at 2-minute intervals for 12 min for contextual fear conditioning. • Day 1: Mice were placed in the electric shock chamber (no odor) used for learning on the previous day, and freezing behavior was measured for 10 min using dedicated software (Freeze frame 2).
In addition, a student's t-test was performed between the saline-administered group and each compound-administered group (*p<0.05, ***p<0.001).
(§1) • Day 0: To about 2 month-old C57/BL6 mice was intraperitoneally administered 200 μl of saline or 1 v/v % 2-(allylthio)-2-thiazoline solution (dissolved in saline) (each condition n=6). Thirty minutes after the administration, the mice were placed in an electric shock chamber, and 2-second electric shock (0.6 mA) was given 6 times at 2-minute intervals for 12 min for contextual fear conditioning. • Day 1: Mice were placed in the electric shock chamber (no odor) used for learning on the previous day, and freezing behavior was measured for 10 min using dedicated software (Freeze frame 2).
A student's t-test was performed between the saline-administered group and the 2-(allylthio)-2-thiazoline-administered group (*p<0.05).
as §1, with “4-tert-butyl-2-methylthiazole” for “2-(allylthio)-2-thiazoline”
as §1, with “2-ethoxythiazole” for “2-(allylthio)-2-thiazoline”
as §1, with “2-methylbenzothiazole” for “2-(allylthio)-2-thiazoline”
• Day 0: To about 2 month-old 057/BL6 mice was intraperitoneally administered 200 μl of saline or 1 v/v % 2-mercaptothiazole solution (dissolved in saline) (each condition n=6). […]

SMILES	frequency of freezing behavior during the test (day 1)
CCc1nccnc1CC [2,3-diethylpyrazine]	significant decrease
CC1=NC(C)SC1C (centres unmarked) [2,4,5-trimethyl-3-thiazoline]	significant decrease
Cc1cccc(C)n1 [2,6-lutidine]	significant decrease
C=CCSC1=NCCS1 [2-(allylthio)-2-thiazoline]	significant decrease
CC(=O)c1ccc[nH]1 [2-acetylpyrrole]	significant decrease
NC1=NCCS1 [2-amino-2-thiazoline]	significant decrease
CCOc1nccs1 [2-ethoxythiazole]	significant decrease
Sc1nccs1 [2-mercaptothiazole]	significant decrease
CC1=NCCS1 [2-methyl-2-thiazoline]	significant decrease
Cc1nc2ccccc2s1 [2-methylbenzothiazole]	significant decrease
Cc1nccs1 [2-methylthiazole]	significant decrease
CC1CNCCS1 (centres unmarked) [2-methylthiomorpholine]	significant decrease
CCC1CSC(C)=N1 (centres unmarked) [4-ethyl-2-methyl-2-thiazoline]	significant decrease
Cc1nc(C(C)(C)C)cs1 [4-tert-butyl-2-methylthiazole]	significant decrease
Cc1cncs1 [5-methylthiazole]	significant decrease
C=CCN=C=S [AITC, allyl isothiocyanate]	significant decrease
C=C(C)CN=C=S [methallyl isothiocyanate]	significant decrease
C1CSCCN1 [thiomorpholine]	significant decrease
